From ChEMBL document CHEMBL4251620, “Biological evaluation of indolizine-chalcone hybrids as new anticancer agents” (Eur J Med Chem, 2018)
Active and inactive are the calls of the source. The rule behind the calls is not given here.

Key:
JeKo-1 [1] = experiment: Induction of apoptosis in human JeKo1 cells at 10 uM after 48 hrs by muse Annexin V/dead cell reagent staining-based flow cytometric analysis (reference value: 5.21%); assay type: functional
Raji [2] = experiment: Induction of apoptosis in human Raji cells at 10 uM after 48 hrs by muse Annexin V/dead cell reagent staining-based flow cytometric analysis (reference value: 9.58%); assay type: functional
Raji [3] = experiment: Cytotoxicity against human Raji cells assessed as reduction in cell viability after 48 hrs by CCK-8 assay; assay type: functional, cell-based
U-937 [4] = experiment: Induction of apoptosis in human U937 cells assessed as necrotic cells at 3 uM after 48 hrs by muse Annexin V/dead cell reagent staining-based flow cytometric analysis (reference value: 0.06%); assay type: functional
U-937 [5] = experiment: Cytotoxicity activity against human U937 cells assessed as reduction in cell viability after 48 hrs by CCK-8 assay; assay type: functional, cell-based; settings: U-937, 48 h
U-937 [6] = experiment: Induction of apoptosis in human U937 cells assessed as late apoptotic cells at 3 uM after 48 hrs by muse Annexin V/dead cell reagent staining-based flow cytometric analysis (reference value: 1%); assay type: functional
U-937 [7] = experiment: Induction of apoptosis in human U937 cells assessed as early apoptotic cells at 3 uM after 48 hrs by muse Annexin V/dead cell reagent staining-based flow cytometric analysis (reference value: 1.87%); assay type: functional
U-937 [8] = experiment: Induction of apoptosis in human U937 cells assessed as necrotic cells at 10 uM after 48 hrs by muse Annexin V/dead cell reagent staining-based flow cytometric analysis (reference value: 0.06%); assay type: functional
U-937 [9] = experiment: Induction of apoptosis in human U937 cells assessed as viable cells at 3 uM after 48 hrs by muse Annexin V/dead cell reagent staining-based flow cytometric analysis (reference value: 97.07%); assay type: functional; settings: U-937, 48 h, read-out: Activity
JeKo-1 [10] = experiment: Cytotoxicity activity against human JeKo1 cells assessed as reduction in cell viability after 48 hrs by CCK-8 assay; assay type: functional, cell-based; settings: JeKo-1, 48 h
U-937 [11] = experiment: Induction of apoptosis in human U937 cells assessed as early apoptotic cells at 10 uM after 48 hrs by muse Annexin V/dead cell reagent staining-based flow cytometric analysis (reference value: 1.87%); assay type: functional
U-937 [12] = experiment: Induction of apoptosis in human U937 cells assessed as viable cells at 10 uM after 48 hrs by muse Annexin V/dead cell reagent staining-based flow cytometric analysis (reference value: 97.07%); assay type: functional; settings: U-937, 48 h, read-out: Activity
U-937 [13] = experiment: Induction of apoptosis in human U937 cells at 10 uM after 48 hrs by muse Annexin V/dead cell reagent staining-based flow cytometric analysis (reference value: 2.95%); assay type: functional
U-937 [14] = experiment: Induction of apoptosis in human U937 cells assessed as late apoptotic cells at 10 uM after 48 hrs by muse Annexin V/dead cell reagent staining-based flow cytometric analysis (reference value: 1%); assay type: functional
U-937 [15] = experiment: Induction of apoptosis in human U937 cells assessed as increase in caspase-3/7 activity at 3 uM after 6 hrs; assay type: functional, cell-based
U-937 [16] = experiment: Cytotoxicity activity against human U937 cells assessed as cell viability at 1 uM after 48 hrs by CCK-8 assay; assay type: functional; settings: U-937, 48 h, read-out: Activity
U-937 [17] = experiment: Cytotoxicity activity against human U937 cells assessed as reduction in cell viability at 1 uM after 48 hrs by CCK-8 assay; assay type: functional, cell-based

COc1cc(/C=C/C(=O)c2cc3cccn3c(C(=O)c3ccccc3)c2C)cc(OC)c1
Activity (JeKo-1 [1]): 46.27% | Activity (Raji [2]): 33.78% | IC50 (Raji [3]): 1990 nM | Activity (U-937 [4]): 0.62% | IC50 (U-937 [5]): 1120 nM | Activity (U-937 [6]): 45.57% | Activity (U-937 [7]): 39.59% | Activity (U-937 [8]): 0% | viability at 3 µM (U-937 [9]): 14.2% | IC50 (JeKo-1 [10]): 1300 nM | Activity (U-937 [11]): 8.22% | viability at 10 µM (U-937 [12]): 3.36% | Activity (U-937 [13]): 51.26% | Activity (U-937 [14]): 88.41% | Activity (U-937 [15]): Active | viability at 1 µM (U-937 [16]): < 80%

Cc1c(C(=O)/C=C/c2ccc3c(c2)OCO3)cc2cccn2c1C(=O)c1ccccc1
viability at 1 µM (U-937 [16]): > 80%

COc1cc(/C=C/C(=O)c2cc3cccn3c(C(=O)c3ccco3)c2C)cc(OC)c1
IC50 (U-937 [5]): 7530 nM

COc1cc(/C=C2\CCc3c(cc4cccn4c3C(=O)c3ccccc3)C2=O)cc(OC)c1
IC50 (U-937 [5]): 9460 nM

COc1ccc(/C=C/C(=O)c2cc3cccn3c(C(=O)c3ccccc3)c2C)cc1
viability at 1 µM (U-937 [16]): > 80%

COc1ccc(C(=O)c2c(C)c(C(=O)/C=C/c3cc(OC)cc(OC)c3)cc3cccn23)cc1
IC50 (U-937 [5]): 6560 nM

Cc1c(C(=O)/C=C/c2ccccc2)cc2cccn2c1C(=O)c1ccccc1
viability at 1 µM (U-937 [16]): > 80%

COc1cccc2c1C(=O)c1c(O)c3c(c(O)c1C2=O)C[C@@](O)(C(=O)CO)C[C@@H]3O[C@H]1C[C@H](N)[C@H](O)[C@H](C)O1 [DOXORUBICIN]
Activity (JeKo-1 [1]): 87.92% | Activity (Raji [2]): 95.35% | IC50 (Raji [3]): 170 nM | IC50 (U-937 [5]): 280 nM | IC50 (JeKo-1 [10]): 180 nM | Activity (U-937 [13]): 74.66%

Cc1c(C(=O)/C=C/c2ccc(Br)cc2)cc2cccn2c1C(=O)c1ccccc1
Activity (U-937 [4]): 0.77% | IC50 (U-937 [5]): 1380 nM | Activity (U-937 [6]): 42.16% | Activity (U-937 [7]): 31.36% | Activity (U-937 [8]): 0.59% | viability at 3 µM (U-937 [9]): 25.7% | Activity (U-937 [11]): 14.54% | viability at 10 µM (U-937 [12]): 8.31% | Activity (U-937 [14]): 76.56% | Activity (U-937 [15]): Active | viability at 1 µM (U-937 [16]): < 80%

COc1ccccc1/C=C/C(=O)c1cc2cccn2c(C(=O)c2ccccc2)c1C
viability at 1 µM (U-937 [16]): > 80%

Cc1c(C(=O)/C=C/c2ccc([N+](=O)[O-])cc2)cc2cccn2c1C(=O)c1ccccc1
Activity (U-937 [4]): 1.57% | IC50 (U-937 [5]): 1380 nM | Activity (U-937 [6]): 47.12% | Activity (U-937 [7]): 24.87% | Activity (U-937 [8]): 1.31% | viability at 3 µM (U-937 [9]): 26.4% | Activity (U-937 [11]): 16.34% | viability at 10 µM (U-937 [12]): 13.7% | Activity (U-937 [14]): 68.63% | Activity (U-937 [15]): Active | viability at 1 µM (U-937 [16]): < 80%

COc1ccc(/C=C/C(=O)c2cc3cccn3c(C(=O)c3ccccc3)c2C)cc1OC
viability at 1 µM (U-937 [16]): > 80%

COc1cccc(/C=C/C(=O)c2cc3cccn3c(C(=O)c3ccccc3)c2C)c1
viability at 1 µM (U-937 [16]): > 80%

Cc1c(C(=O)/C=C/c2ccc(Cl)cc2)cc2cccn2c1C(=O)c1ccccc1
Activity (U-937 [17]): Active | viability at 1 µM (U-937 [16]): > 80%

Cc1c(C(=O)/C=C/c2cccc(F)c2)cc2cccn2c1C(=O)c1ccccc1
Activity (U-937 [17]): Active | viability at 1 µM (U-937 [16]): > 80%

Cc1c(C(=O)/C=C/c2ccc(Br)s2)cc2cccn2c1C(=O)c1ccccc1
viability at 1 µM (U-937 [16]): > 80%

Cc1c(C(=O)/C=C/c2ccncc2)cc2cccn2c1C(=O)c1ccccc1
Activity (U-937 [4]): 0.93% | IC50 (U-937 [5]): 1370 nM | Activity (U-937 [6]): 47.68% | Activity (U-937 [7]): 30.03% | Activity (U-937 [8]): 0% | viability at 3 µM (U-937 [9]): 21.4% | Activity (U-937 [11]): 6.21% | viability at 10 µM (U-937 [12]): 10.7% | Activity (U-937 [14]): 83.05% | Activity (U-937 [15]): Active | viability at 1 µM (U-937 [16]): < 80%

Cc1c(C(=O)/C=C/c2ccc(Br)o2)cc2cccn2c1C(=O)c1ccccc1
viability at 1 µM (U-937 [16]): > 80%

Cc1c(C(=O)/C=C/c2ccc3ccccc3c2)cc2cccn2c1C(=O)c1ccccc1
viability at 1 µM (U-937 [16]): > 80%

Cc1ccc(/C=C/C(=O)c2cc3cccn3c(C(=O)c3ccccc3)c2C)cc1
viability at 1 µM (U-937 [16]): > 80%

Cc1c(C(=O)/C=C/c2ccc(F)cc2)cc2cccn2c1C(=O)c1ccccc1
Activity (U-937 [17]): Active | viability at 1 µM (U-937 [16]): > 80%

COc1cc(/C=C/C(=O)c2cc3cccn3c(C(=O)c3ccccc3)c2C)cc(OC)c1OC
IC50 (U-937 [5]): 5950 nM

Cc1c(C(=O)/C=C/c2cccc(Cl)c2)cc2cccn2c1C(=O)c1ccccc1
Activity (U-937 [17]): Active | Activity (U-937 [4]): 0.55% | IC50 (U-937 [5]): 1280 nM | Activity (U-937 [6]): 54.29% | Activity (U-937 [7]): 29.36% | Activity (U-937 [8]): 0.24% | viability at 3 µM (U-937 [9]): 15.8% | Activity (U-937 [11]): 5.94% | viability at 10 µM (U-937 [12]): 7.84% | Activity (U-937 [14]): 85.99% | Activity (U-937 [15]): Active | viability at 1 µM (U-937 [16]): < 80%
